This is an account of results in patent US11000033B2, “Ketone or oxime compound, and herbicide” (NISSAN CHEMICAL CORPORATION, priority 2014, dated 2021).

Holding throughout (type): in vivo
One data set concerns Veronica persica. As to the kind of experiment: Test Example 4: herbicidal effect by soil treatment (symbol R). Particulars: application herbicide amount 320 g/ha. The method in brief: (§1)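 Seeds were sown in sterilized diluvial soil, covered with about 1.5 cm of soil, and the soil surface was sprayed with a water-diluted emulsion of the compound at a predetermined rate. Plants grew in a greenhouse at 25° C. to 30° C.; effects were scored visually 3 weeks after application.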

Data set [1] concerns Lolium multiflorum Lam. As to the kind of experiment: Test Example 4: herbicidal effect by soil treatment (symbol K). Particulars: application herbicide amount 320 g/ha. Summed up: as §1
For data set [2], the system named is Echinochloa crus-galli var. crus-galli. As to the kind of experiment: Test Example 3: herbicidal effect by foliage application, Wagner pot (symbol H). Particulars: application herbicide amount 320 g/ha. The method in brief:
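In a shallow-flooded alluvial soil system held at 25–30 °C, plants including rice grew for 14 days and were then sprayed over the foliage with emulsion diluted to a fixed herbicide amount. Visual rating followed at 3 weeks.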

Data set [3] concerns Digitaria ciliaris. As to the kind of experiment: Test Example 5: herbicidal effect by foliage application, plastic box (symbol F). Particulars: 320 g/ha, 3 weeks after application. Summed up: (§2)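 Seeds were sown in sterilized diluvial soil, covered with about 1.5 cm of soil and grown 14 days in a greenhouse at 25° C. to 30° C. An emulsifiable formulation diluted in water to a set rate was sprayed over foliage, and injury was scored 3 weeks later.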

In a further data set the test system is Setaria viridis. As to the kind of experiment: Test Example 4: herbicidal effect by soil treatment (symbol G). Particulars: application herbicide amount 320 g/ha. Summed up:
as §1

Data set [4] deals with Chenopodium album. As to the kind of experiment: Test Example 5: herbicidal effect by foliage application, plastic box (symbol O). Particulars: 320 g/ha, 3 weeks after application. The method in brief:
as §2

A further data set concerns beet. As to the kind of experiment: Test Example 5: effect on crop by foliage application, plastic box (symbol f). Particulars: 320 g/ha, 3 weeks after application. The method in brief:
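Foliage-application test plants come from spot sowing in sterilized diluvial soil under a soil layer of about 1.5 cm, grown at 25° C. to 30° C. in a greenhouse.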

The test system of another data set is Abutilon theophrasti. As to the kind of experiment: Test Example 5: herbicidal effect by foliage application, plastic box (symbol M). Particulars: 320 g/ha, 3 weeks after application. Summed up: as §2
Data set [5] relates to Digitaria ciliaris. As to the kind of experiment: Test Example 4: herbicidal effect by soil treatment (symbol F). Particulars: application herbicide amount 320 g/ha. Summed up:
as §1

Data set [6] deals with Chenopodium album. As to the kind of experiment: Test Example 4: herbicidal effect by soil treatment (symbol O). Particulars: application herbicide amount 320 g/ha. Summed up:
as §1

The test system of another data set is transplanted rice plant. As to the kind of experiment: Test Example 1: effect on crop, application before weed generation in submerged conditions (symbol a). Particulars: application herbicide amount 320 g/ha. Summed up:
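Alluvial soil pots flooded to 4 cm water, sown with Echinochloa oryzacola, Scirpus juncoides and Monochoria vaginalis, then transplanted with 2.5 leaf stage rice seedlings; pre-emergence application. Greenhouse 25° C. to 30° C.; scored 0–5 by herbicidal ratio 3 weeks after application.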

In another data set the test system is Alopecurus myosuroides. As to the kind of experiment: Test Example 5: herbicidal effect by foliage application, plastic box (symbol J). Particulars: 320 g/ha, 3 weeks after application. Summed up:
as §2

A further data set relates to Stellaria media. As to the kind of experiment: Test Example 5: herbicidal effect by foliage application, plastic box (symbol P). Particulars: 320 g/ha, 3 weeks after application. The method in brief: as §2
The test system of data set [7] is directly sowed rice plant. As to the kind of experiment: Test Example 3: effect on crop by foliage application, Wagner pot (symbol b). Particulars: application herbicide amount 320 g/ha. The method in brief:
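Alluvial soil in a 1/10000-are Wagner pot was flooded to a water depth of 0.1–0.5 cm. Echinochloa crus-galli var. crus-galli, Leptochloa chinensis, Cyperus difformis and rice were sown into it and grown in a greenhouse at 25–30 °C.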

The subject of a further data set is Amaranthus retroflexus. As to the kind of experiment: Test Example 4: herbicidal effect by soil treatment (symbol N). Particulars: application herbicide amount 320 g/ha. The method in brief:
as §1

Another data set relates to Galium spurium. As to the kind of experiment: Test Example 4: herbicidal effect by soil treatment (symbol Q). Particulars: application herbicide amount 320 g/ha. The method in brief:
as §1

The test system of another data set is wheat. As to the kind of experiment: Test Example 4: effect on crop by soil treatment (symbol e). Particulars: application herbicide amount 320 g/ha. Summed up:
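Steps: fill box with sterilized diluvial soil; sow seed spot-like; cover with ~1.5 cm soil; grow in greenhouse (25° C. to 30° C.).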

Data set [8] deals with Lolium multiflorum Lam. As to the kind of experiment: Test Example 5: herbicidal effect by foliage application, plastic box (symbol K). Particulars: 320 g/ha, 3 weeks after application. The method in brief: as §2

With `CON=C(C)CC1CC(O)=C(c2c(C)cc(-c3ccc(Cl)cc3)cc2OC)C1=O` (stereo not drawn) [6-077, 2-(4′-chloro-3-methoxy-5-methyl-[1,1′-biphenyl]-4-yl)-3-hydroxy-5-{2-(methoxyimino)propyl}cyclopent-2-enone], the “R: Veronica persica, herbicidal effect grade” value in the data set on Veronica persica is 4 (Herbicidal ratio of 70% or higher and lower than 90%). Besides, in the data set on Lolium multiflorum Lam. [1], the “K: Lolium multiflorum Lam., herbicidal effect grade” value is 5 (Herbicidal ratio of 90% or more (almost completely withered)). In addition, the “herbicidal effect on H (Echinochloa crus-galli var. crus-galli), grade 0-5” value (shortened to “herbicidal effect on H”) in [2] is 5 (Herbicidal ratio of 90% or more (almost completely withered)). Moreover, the “F: Digitaria ciliaris, herbicidal effect (criteria of Test Example 1)” value in the data set on Digitaria ciliaris [3] is recorded as 5 (Herbicidal ratio of 90% or more (almost completely withered)). The “G: Setaria viridis, herbicidal effect grade” value in the data set with Setaria viridis is 5 (Herbicidal ratio of 90% or more (almost completely withered)). The “O: Chenopodium album, herbicidal effect (criteria of Test Example 1)” value with Chenopodium album [4] was 4 (Herbicidal ratio of 70% or higher and lower than 90%). Further, in the data set on beet, the “f: beet, effect on crop (criteria of Test Example 1)” value (“f: beet, effect on crop” below) was 4 (Herbicidal ratio of 70% or higher and lower than 90%). The “M: Abutilon theophrasti, herbicidal effect (criteria of Test Example 1)” value (“M: Abutilon theophrasti” for short) with Abutilon theophrasti is 5 (Herbicidal ratio of 90% or more (almost completely withered)). Further, the “F: Digitaria ciliaris, herbicidal effect grade” value in the data set with Digitaria ciliaris [5] was 5 (Herbicidal ratio of 90% or more (almost completely withered)). Also, the “O: Chenopodium album, herbicidal effect grade” value in the data set on Chenopodium album [6] was 4 (Herbicidal ratio of 70% or higher and lower than 90%). Further, the “Effect grade on crop, a: transplanted rice plant” value (“Effect grade on crop” below) in the data set with transplanted rice plant was 5 (Herbicidal ratio of 90% or more (almost completely withered)). Moreover, in the data set with Alopecurus myosuroides, the “J: Alopecurus myosuroides, herbicidal effect (criteria of Test Example 1)” value (“J: Alopecurus myosuroides” below) is reported as 5 (Herbicidal ratio of 90% or more (almost completely withered)). The “P: Stellaria media, herbicidal effect (criteria of Test Example 1)” value (“P: Stellaria media, herbicidal effect” for short) in the data set on Stellaria media was 4 (Herbicidal ratio of 70% or higher and lower than 90%). For the same compound, in data set [7], the “effect on crop b (directly sowed rice plant), grade 0-5” value (“effect on crop b” below) was 5 (Herbicidal ratio of 90% or more (almost completely withered)). In addition, the “N: Amaranthus retroflexus, herbicidal effect grade” value in the data set with Amaranthus retroflexus is 5 (Herbicidal ratio of 90% or more (almost completely withered)). For the same compound, the “Q: Galium spurium, herbicidal effect grade” value in the data set with Galium spurium was 4 (Herbicidal ratio of 70% or higher and lower than 90%). Moreover, the “e: wheat, effect on crop grade” value with wheat is recorded as 0 (Herbicidal ratio of 5% or lower (almost no effect)). For the same compound, the “K: Lolium multiflorum Lam., herbicidal effect (criteria of Test Example 1)” value in the data set with Lolium multiflorum Lam. [8] is given as 5 (Herbicidal ratio of 90% or more (almost completely withered)).
Turning to `CON=C(C)CC1CC(O)=C(c2c(C)cc(-c3ccccc3)cc2OC)C1=O` (stereo not drawn) [6-099], in the data set on Veronica persica, the “Herbicidal effect grade, R: Veronica persica” value was 4 (Herbicidal ratio of 70% or higher and lower than 90%). Besides, the “Herbicidal effect grade, K: Lolium multiflorum Lam.” value in the data set on Lolium multiflorum Lam. [1] is on record as 5 (Herbicidal ratio of 90% or more (almost completely withered)). The “herbicidal effect on H” value in data set [2] is 5 (Herbicidal ratio of 90% or more (almost completely withered)). Besides, the “F: Digitaria ciliaris, herbicidal effect (criteria of Test Example 1)” value with Digitaria ciliaris [3] is 5 (Herbicidal ratio of 90% or more (almost completely withered)). Moreover, in the data set with Setaria viridis, the “Herbicidal effect grade, G: Setaria viridis” value is on record as 5 (Herbicidal ratio of 90% or more (almost completely withered)). In addition, the “O: Chenopodium album, herbicidal effect (criteria of Test Example 1)” value in the data set on Chenopodium album [4] is listed as 5 (Herbicidal ratio of 90% or more (almost completely withered)). For the same compound, the “f: beet, effect on crop” value in the data set on beet was 4 (Herbicidal ratio of 70% or higher and lower than 90%). Moreover, in the data set with Abutilon theophrasti, the “M: Abutilon theophrasti” value was 3 (Herbicidal ratio of 40% or higher and lower than 70%). Moreover, the “Herbicidal effect grade, F: Digitaria ciliaris” value in the data set on Digitaria ciliaris [5] is reported as 5 (Herbicidal ratio of 90% or more (almost completely withered)). Also, the “Herbicidal effect grade, O: Chenopodium album” value with Chenopodium album [6] is 4 (Herbicidal ratio of 70% or higher and lower than 90%). Also, the “Effect grade on crop” value in the data set on transplanted rice plant was 5 (Herbicidal ratio of 90% or more (almost completely withered)). In addition, in the data set with Alopecurus myosuroides, the “J: Alopecurus myosuroides” value is on record as 5 (Herbicidal ratio of 90% or more (almost completely withered)). For the same compound, in the data set with Stellaria media, the “P: Stellaria media, herbicidal effect” value is 4 (Herbicidal ratio of 70% or higher and lower than 90%). Further, the “effect on crop b” value in data set [7] was 5 (Herbicidal ratio of 90% or more (almost completely withered)). For the same compound, the “Herbicidal effect grade, N: Amaranthus retroflexus” value with Amaranthus retroflexus was 5 (Herbicidal ratio of 90% or more (almost completely withered)). Besides, in the data set on Galium spurium, the “Herbicidal effect grade, Q: Galium spurium” value was 3 (Herbicidal ratio of 40% or higher and lower than 70%). In the data set with wheat, the “Effect on crop grade, e: wheat” value was 5 (Herbicidal ratio of 90% or more (almost completely withered)). For the same compound, in the data set with Lolium multiflorum Lam. [8], the “K: Lolium multiflorum Lam., herbicidal effect (criteria of Test Example 1)” value was 5 (Herbicidal ratio of 90% or more (almost completely withered)).
As to `CON=C(C)CC1CC(OC(=O)N2CCCCC2)=C(c2c(C)cc(C)cc2OC)C1=O` (stereo not drawn) [6-111], the “Herbicidal effect grade, R: Veronica persica” value in the data set with Veronica persica is listed as 0 (Herbicidal ratio of 5% or lower (almost no effect)). Also, in the data set with Lolium multiflorum Lam. [1], the “Herbicidal effect grade, K: Lolium multiflorum Lam.” value is on record as 5 (Herbicidal ratio of 90% or more (almost completely withered)). Further, in [2], the “herbicidal effect on H” value is 5 (Herbicidal ratio of 90% or more (almost completely withered)). For the same compound, the “F: Digitaria ciliaris, herbicidal effect (criteria of Test Example 1)” value with Digitaria ciliaris [3] was 5 (Herbicidal ratio of 90% or more (almost completely withered)). Besides, in the data set on Setaria viridis, the “Herbicidal effect grade, G: Setaria viridis” value is recorded as 0 (Herbicidal ratio of 5% or lower (almost no effect)). Also, the “O: Chenopodium album, herbicidal effect (criteria of Test Example 1)” value in the data set on Chenopodium album [4] was 0 (Herbicidal ratio of 5% or lower (almost no effect)). Moreover, the “f: beet, effect on crop” value with beet was 0 (Herbicidal ratio of 5% or lower (almost no effect)). Besides, in the data set on Abutilon theophrasti, the “M: Abutilon theophrasti” value is 2 (Herbicidal ratio of 20% or higher and lower than 40%). Moreover, the “Herbicidal effect grade, F: Digitaria ciliaris” value with Digitaria ciliaris [5] is 4 (Herbicidal ratio of 70% or higher and lower than 90%). Further, the “Herbicidal effect grade, O: Chenopodium album” value in the data set on Chenopodium album [6] is listed as 0 (Herbicidal ratio of 5% or lower (almost no effect)). Also, the “Effect grade on crop” value in the data set on transplanted rice plant is reported as 5 (Herbicidal ratio of 90% or more (almost completely withered)). The “J: Alopecurus myosuroides” value in the data set with Alopecurus myosuroides was 5 (Herbicidal ratio of 90% or more (almost completely withered)). Besides, the “P: Stellaria media, herbicidal effect” value with Stellaria media is 1 (Herbicidal ratio of 5% or higher and lower than 20%). In addition, in data set [7], the “effect on crop b” value is 5 (Herbicidal ratio of 90% or more (almost completely withered)). The “Herbicidal effect grade, N: Amaranthus retroflexus” value in the data set with Amaranthus retroflexus is on record as 0 (Herbicidal ratio of 5% or lower (almost no effect)). Also, the “Herbicidal effect grade, Q: Galium spurium” value with Galium spurium is recorded as 0 (Herbicidal ratio of 5% or lower (almost no effect)). Further, in the data set on wheat, the “Effect on crop grade, e: wheat” value is recorded as 0 (Herbicidal ratio of 5% or lower (almost no effect)). Besides, the “K: Lolium multiflorum Lam., herbicidal effect (criteria of Test Example 1)” value with Lolium multiflorum Lam. [8] is reported as 5 (Herbicidal ratio of 90% or more (almost completely withered)).
